Assay results from patent US7914830B2, “Composition for inhibiting thrombosis” (Taiyo Kagaku Co., Ltd, priority 2003, dated 2011).

How the values were obtained:
[1] = tested on: platelet poor plasma (PPP) separated from human blood; assay: APTT anti-coagulant activity of carrageenan antithrombotic agents (Test Example G-1); assay type: biochemical; settings: for Anti-Coagulant Activity: relative to water control
Protocol: The anti-coagulant activity of the antithrombotic agent of the present invention was assayed with a coagulometer (manufactured by SYSMEX CORPORATION) utilizing platelet poor plasma (PPP) separated from human blood.
Ten microliters of a sample, 25 microliters of an APTT reagent (manufactured by INTERNATIONAL REAGENTS CORPORATION), and 25 microliters of 10% cephalin were placed into a reaction cuvette to react the components at 37° C. for 3 minutes, and 50 microliters of PPP was placed in the reaction cuvette to react the components for 2 minutes. Finally, 50 microliters of 25 millimolar calcium chloride was added to coagulate the mixture obtained. The time period (second) by which plasma was coagulated was measured, and defined as APTT.
Here, water was used as the control, and the APTT was measured in the same manner. The anti-coagulant activity (%) was calculated from the measured APTT of the sample, relative to that of the control according to the following numerical formula. Anti-Coagulant Activity(%)=((APTT of Sample−APTT of Control)/APTT of Control)×100 […]

[2] = tested on: platelet poor plasma (PPP) separated from human blood; assay: APTT and heparin-like activity, enzymatically treated Hizikia fusiforme compositions (Test Examples F″-1, F″-2); assay type: biochemical
Protocol: The thrombus preventing effect of the composition A for preventing thrombus of the present invention was evaluated by measuring the APTT with a coagulometer (manufactured by SYSMEX CORPORATION) utilizing platelet poor plasma (PPP) separated from human blood.
(§1) Ten microliters of a sample of which amount was adjusted so as to have a concentration of 0.075, 0.15, 0.3 or 0.5 mg/mL calculated as a solid content, and 40 μl of PPP were placed in a reaction cuvette to react the components at 37° C. for 1 minute. Thereafter, 50 μL of an APTT reagent (manufactured by INTERNATIONAL REAGENTS CORPORATION) was added thereto to further react the components at 37° C. for 2 minutes, and 50 μL of 25 mM calcium chloride was then added thereto. The time period (second) by which plasma was coagulated was measured, and defined as APTT.
Here, as the control, the APTT was measured in the same manner using heparin adjusted to a concentration of 0.05, 0.1, 0.2 or 0.3 U/mL as a sample. The following calculation formula for a heparin-like activity value (U/mg) was obtained from the relationship between the concentration of heparin and the APTT of heparin. The resultant value was plugged into the calculation formula to give a heparin-like activity value relative to heparin (1 U/mL) at each sample concentration.
The APTTs were measured for the composition A for preventing thrombus obtained in Example F″-1, the compositions B and C for preventing thrombus obtained in Example F″-2, and the comparative composition obtained in Comparative Example F″-1 in the same manner as in Test Example F″-1 at a concentration of 0.2 mg/mL calculated as a solid content. Thereafter, the resultant value was plugged into the calculation formula for a heparin-like activity value (U/mg) in Test Example F″-1, to give a heparin-like activity value of each composition for preventing thrombus.

[3] = tested on: platelet poor plasma (PPP) separated from human blood; assay: APTT and heparin-like activity, hibiscus anti-blood coagulant compositions (Test Examples C-1 to C-3); assay type: biochemical
Protocol: Ten microliters of heparin adjusted to a concentration of 0.05, 0.1, 0.2 or 0.4 U/mL and 40 μL of platelet poor plasma (PPP) separated from human blood were placed in a reaction cuvette, and the components were reacted at 37° C. for 1 minute. Thereafter, 50 μL of an APTT reagent (manufactured by INTERNATIONAL REAGENTS CORPORATION) was added thereto to further react at 37° C. for 2 minutes, and 50 μL of 25 mM calcium chloride was then added. The time period by which plasma was coagulated (APTT; second) was measured with a coagulometer (manufactured by SYSMEX CORPORATION). In order to evaluate the anti-blood coagulant effect of the anti-blood coagulant composition of the present invention, a calculation formula for the heparin-like activity value (U/mg) was obtained from the relationship between the heparin concentration and the APTT of heparin.
Thereafter, 50 μL of an APTT reagent (manufactured by INTERNATIONAL REAGENTS CORPORATION) was added to further react the components at 37° C. for 2 minutes.

[4] = tested on: platelet poor plasma (PPP) separated from human blood; assay: APTT and heparin-like activity, Hizikia fusiforme thrombus preventing compositions (Test Examples F′-1, F′-2); assay type: biochemical
Protocol: The thrombus preventing effect of the thrombus preventing composition A of the present invention was evaluated by measuring the APTT with the coagulometer utilizing platelet poor plasma (PPP) separated from human blood.
as §1, with “concentration of the thrombus preventing composition A of the present invention of 0.075, 0.15,” for “concentration of 0.075, 0.15,”, “and 40 μL of PPP” for “and 40 μl of PPP”, “was added to further” for “was added thereto to further”, “time period (seconds) by which” for “time period (second) by which”
Here, as the control, APTT was measured using heparin adjusted to have a concentration of 0.05, 0.1, 0.2 and 0.3 U/mL as a sample in the same manner. The following calculation formula for a heparin-like activity value (U/mg) was obtained from this relationship between the concentration of this heparin and APTT of heparin, and the resultant value was plugged into this calculation formula to give a heparin-like activity value relative to heparin (1 U/mL) at each sample concentration.
The APTTs were measured for the thrombus preventing composition A obtained in Example F′-1, the thrombus preventing compositions B, D and E obtained in Example F′-2, and the thrombus preventing composition F obtained in Example F′-3 at a concentration of 0.2 mg/mL calculated as a solid content in the same manner as in Test Example F′-1. Thereafter, the resultant value was plugged into the calculation formula for the heparin-like activity value (U/mg) in Test Example F′-1 to give a heparin-like activity value of each thrombus preventing composition. In addition, a sample was prepared in the same manner for the supernatant fraction with 80% ethanol in Example F′-2, and its heparin-like activity value was obtained.

[5] = tested on: platelet rich plasma of a normal individual; assay: Prothrombin time (PT), anti-extrinsic blood coagulant activity, Hizikia fusiforme (Test Examples F-1, F-2); assay type: biochemical, human
Protocol: The anti-extrinsic blood coagulant activity of the extrinsic blood coagulation preventing composition of the present invention was obtained as follows: Ten microliters of a sample of a heparin test solution adjusted by […] rich plasma of a normal individual using a coagulometer (manufactured by SYSMEX CORPORATION) to react the components at 37° C. for 1 minute. Thereafter, 100 μL of a PT reagent (manufactured by INTERNATIONAL REAGENTS CORPORATION) was added thereto, and the time period by which plasma was coagulated was measured, i.e. PT was measured. From the relationship between the concentration of this heparin test solution and the PT, the following numerical formula for a heparin-like activity value (U/mg) was obtained.
Thereafter, a sample was prepared by diluting the extrinsic blood coagulation preventing composition A of the present invention with distilled water so as to have a concentration of 0.078, 0.156, 0.313, 0.625 or 1.25 mg/mL calculated as a solid content. The PT was measured in the same manner and the resultant value was plugged into the above numerical formula to give a heparin-like activity value relative to heparin (1 U/mL) at each sample concentration.
In addition, a PT ratio was calculated at each sample concentration according to the following equation using a heparin test solution concentration of 0 mg/mL as the control. PT Ratio=PT When Adding Sample/PT of Control(Heparin Test Solution Concentration:0 mg/mL)
The PTs were determined for the extrinsic blood coagulation preventing composition A obtained in Example F-1, the extrinsic blood coagulation preventing compositions B, C, D and E obtained in Example F-2, and the extrinsic blood coagulation preventing composition F obtained in Example F-3 at a concentration of 0.2 mg/mL calculated as a solid content. Thereafter, the resultant value was plugged into the calculation formula for a heparin-like activity value (U/mg) in Test Example F-1, and the heparin-like activity value and the PT ratio of each extrinsic blood coagulation preventing composition were obtained. In addition, a sample was prepared using the supernatant fraction with 80% ethyl alcohol in Example F-2 in the same manner, and the heparin-like activity value and the PT ratio were obtained.

[6] = heparin concentration 0.05 U/mL

Row | Substance | APTT ([1]; concentration 0.5 mg/mL) | Anti-Coagulant Activity ([1]; concentration 0.5 mg/mL) | APTT ([1]; concentration 2.5 mg/mL) | Anti-Coagulant Activity ([1]; concentration 2.5 mg/mL) | APTT ([1]; concentration 5.0 mg/mL) | Anti-Coagulant Activity ([1]; concentration 5.0 mg/mL) | other results
1 | ι-carrageenan | 162 s | 260% | 600 or more sec | 1200 or more % | 600 or more sec | 1200 or more % | –
2 | κ-carrageenan | 99 s | 120% | 491 s | 991% | 600 or more sec | 1200 or more % | –
3 | heparin | – | – | – | – | – | – | APTT [2, 6]: 39.6 s; APTT ([2]; heparin concentration 0.1 U/mL): 50.9 s; APTT ([2]; heparin concentration 0.2 U/mL): 86.4 s; APTT ([2]; heparin concentration 0.3 U/mL): 180.2 s; APTT [3, 6]: 39.6 s; APTT ([3]; heparin concentration 0.1 U/mL): 50.9 s; APTT ([3]; heparin concentration 0.2 U/mL): 86.4 s; APTT ([3]; heparin concentration 0.4 U/mL): 180.2 s; APTT [4, 6]: 39.6 s; APTT ([4]; heparin concentration 0.1 U/mL): 50.9 s; APTT ([4]; heparin concentration 0.2 U/mL): 86.4 s; APTT ([4]; heparin concentration 0.3 U/mL): 180.2 s; PT ([5]; heparin concentration 0.0625 U/mL): 11.6 s; PT ([5]; heparin concentration 0.125 U/mL): 11.8 s; PT ([5]; heparin concentration 0.25 U/mL): 12.3 s; PT ([5]; heparin concentration 0.5 U/mL): 13.2 s; PT ([5]; heparin concentration 1 U/mL): 18.1 s
4 | λ-carrageenan | 398 s | 784% | 600 or more sec | 1200 or more % | 600 or more sec | 1200 or more % | –
